The values below are quoted from earlier work in patent US10281467B2, “Screening assays to identify compounds which modulate T1R associated taste modalities which eliminate false positives” (SENOMYX, INC., priority 2013, dated 2019).

The data set relates to sweet taste. To be noted: more potent/sweet than sucrose.

For the compound `C=C(C)[C@@H]1CC=C(/C=N/O)CC1` [Perillartine], the “potency/sweetness relative to sucrose” value was “approximately 370 times”.
